Experimental data: patent US20130064890A1, “PHARMACEUTICAL FORMULATION BASED ON IBUPROFEN AND CODEINE HAVING IMPROVED STABILITY” ([…] MANUFACTURING, S.L., priority 2010, published 2013)

Assay: Differential Scanning Calorimetry (DSC) detection of incompatibilities, binary mixtures in equal parts
Format: physicochemical
Details: mixture in equal parts with ibuprofen, heating rate 5° C./min
Method: The technique called Differential Scanning calorimetry or DSC has been used for the thermal detection of possible incompatibilities among ingredients of the pharmaceutical formulation described in the present invention. Thus, by using a differential Scanning calorimeter, DSC-7 (Perkin-Elmer, USA) at a heating rate of the samples of 5° C./min, the quantity of energy or enthalpy required to keep the sample at the same temperature as that of the reference and that at each of the test temperatures is measured. […] However, when phase changes occur, the isothermal energy required is registered as an electric signal generated by thermocouples. It is understood that a change of phase occurs (or appearance of incompatibility) if the expected temperature value varies above the considered environment by 10% with respect to its original. Said error is carried from that produced typically in the analytical measurements (±5%, typical in terms of reproducibility), the uncertainty of apparatus calibration (±1%), the accuracy of the micromixture of ingredients achieved (±3%), and the rapid heating rates (±1% for heating>1° C./min). DSC is widely used in the industry as a quality control instrument due to its applicability in assessing the purity of the samples and studying the curing of the polymers. […]

Compound: CCCCCCCCCCCCCCCCCCOC(=O)/C=C/C(=O)[O-].[Na+] [sodium stearyl fumarate]
- thermal/physical incompatibility with ibuprofen by DSC: does not show any physical incompatibility

Compound: magnesium stearate
- thermal/physical incompatibility with ibuprofen by DSC: incompatible eutectic mixture
